In PubChem BioAssay AID248 (DTP/NCI, 2004):
Several values for one entry are separate records, joined by “and”; a condition that tells them apart may be missing. Equal values may be shown once. Inconclusive results and toxic doses are left out. Cut-off read from the data, not from the text of the source: active = T/C of 150% or more; inactive = T/C below 125%.

Tested on: L1210 leukemia ip in BDF1 mice, survival T/C
Assay: NCI In Vivo Anticancer Drug Screen. Data for tumor model L1210 Leukemia (intraperitoneal) in B6D2F1 (BDF1) mice
Conditions: endpoint: mean survival time, higher = longer survival
Outline: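 Mice bearing the transplanted tumor received compound or vehicle. Survival of the treated group was divided by that of the vehicle-treated control group to give the ratio.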

[1] = dose: 25.0 mg/kg/injection, schedule: Q01DX009 (ip), vehicle: saline
[2] = dose: 50.0 mg/kg/injection, schedule: Q01DX009 (ip), vehicle: saline
[3] = dose: 100.0 mg/kg/injection, schedule: Q01DX009 (ip), vehicle: saline
[4] = dose: 200.0 mg/kg/injection, schedule: Q01DX009 (ip), vehicle: saline
[5] = dose: 12.5 mg/kg/injection, schedule: Q04DX003 (ip), vehicle: saline with Tween-80
[6] = dose: 100.0 mg/kg/injection, schedule: Q01DX009 (ip), vehicle: Klucel (hydroxypropylcellulose) (HPC)
[7] = dose: 200.0 mg/kg/injection, schedule: Q01DX009 (ip), vehicle: Klucel (hydroxypropylcellulose) (HPC)
[8] = dose: 400.0 mg/kg/injection, schedule: Q01DX009 (ip), vehicle: Klucel (hydroxypropylcellulose) (HPC)
[9] = dose: 100.0 mg/kg/injection, schedule: Q01DX001 (ip), vehicle: other
[10] = dose: 200.0 mg/kg/injection, schedule: Q01DX001 (ip), vehicle: other
[11] = dose: 100.0 mg/kg/injection, schedule: Q04DX002 (ip), vehicle: Klucel (hydroxypropylcellulose) (HPC)
[12] = dose: 200.0 mg/kg/injection, schedule: Q04DX002 (ip), vehicle: Klucel (hydroxypropylcellulose) (HPC)
[13] = dose: 400.0 mg/kg/injection, schedule: Q04DX002 (ip), vehicle: Klucel (hydroxypropylcellulose) (HPC)
[14] = dose: 100.0 mg/kg/injection, schedule: Q04DX002 (ip), vehicle: saline with Tween-80
[15] = dose: 200.0 mg/kg/injection, schedule: Q04DX002 (ip), vehicle: saline with Tween-80
[16] = dose: 400.0 mg/kg/injection, schedule: Q04DX002 (ip), vehicle: saline with Tween-80
[17] = dose: 50.0 mg/kg/injection, schedule: Q01DX001 (ip), vehicle: carboxymethylcellulose (CMC)
[18] = dose: 100.0 mg/kg/injection, schedule: Q01DX001 (ip), vehicle: carboxymethylcellulose (CMC)
[19] = dose: 200.0 mg/kg/injection, schedule: Q01DX001 (ip), vehicle: carboxymethylcellulose (CMC)
[20] = dose: 400.0 mg/kg/injection, schedule: Q01DX001 (ip), vehicle: carboxymethylcellulose (CMC)
[21] = dose: 100.0 mg/kg/injection, schedule: Q04DX003 (ip), vehicle: Klucel (hydroxypropylcellulose) (HPC)
[22] = dose: 200.0 mg/kg/injection, schedule: Q04DX003 (ip), vehicle: Klucel (hydroxypropylcellulose) (HPC)
[23] = dose: 400.0 mg/kg/injection, schedule: Q04DX003 (ip), vehicle: Klucel (hydroxypropylcellulose) (HPC)

Measured: T/C

Nc1c2c(nc3ccccc13)CCCC2
inactive: dose: 0.78 mg/kg/injection, schedule: Q04DX003 (ip), vehicle: saline 101 % of control | dose: 1.56 mg/kg/injection, schedule: Q01DX009 (ip), vehicle: saline 98 % of control | dose: 1.56 mg/kg/injection, schedule: Q04DX003 (ip), vehicle: saline 93 % of control | dose: 3.12 mg/kg/injection, schedule: Q01DX009 (ip), vehicle: saline 93 % of control | dose: 3.12 mg/kg/injection, schedule: Q04DX003 (ip), vehicle: saline 104 % of control | dose: 6.25 mg/kg/injection, schedule: Q04DX003 (ip), vehicle: saline 96 % of control | dose: 12.5 mg/kg/injection, schedule: Q04DX003 (ip), vehicle: saline 95 % of control

COc1ccc(/C=C/C(C)=O)cc1OC
inactive: dose: 6.25 mg/kg/injection, schedule: Q01DX009 (ip), vehicle: saline 91 % of control | dose: 12.5 mg/kg/injection, schedule: Q01DX009 (ip), vehicle: saline 100 % of control | [1] 91 % of control | [2] 87 % of control | [3] 88 % of control | [4] 88 % of control

CC(=[N-])CC(C)=O.CC(=[N-])CC(C)=O.[Cu+2]
inactive: dose: 6.25 mg/kg/injection, schedule: Q04DX003 (ip), vehicle: saline with Tween-80 88 % of control | [5] 89 % of control

CCc1ccc(NS(=O)(=O)c2ccccc2[N+](=O)[O-])cc1
inactive: [6] 105 % of control | [7] 105 % of control | [8] 113 % of control

CC(C)=NNC(=O)COCC(=O)NN=C(C)C
inactive: [6] 97 % of control | [7] 112 % of control | [8] 109 % of control

NC(N)=NC(N)=Nc1ccc([As](=O)(O)O)c(O)c1
inactive: [1] 101 % of control | dose: 40.0 mg/kg/injection, schedule: Q01DX009 (ip), vehicle: Klucel (hydroxypropylcellulose) (HPC) 108 % of control | [2] 98 % of control | dose: 80.0 mg/kg/injection, schedule: Q01DX009 (ip), vehicle: Klucel (hydroxypropylcellulose) (HPC) 101 % of control | [3] 108 % of control | dose: 160.0 mg/kg/injection, schedule: Q01DX009 (ip), vehicle: Klucel (hydroxypropylcellulose) (HPC) 104 % of control

CCSc1n[nH]c(=O)nc1NN
inactive: dose: 10.0 mg/kg/injection, schedule: Q01DX001 (ip), vehicle: acetone 102 % of control | dose: 20.0 mg/kg/injection, schedule: Q01DX001 (ip), vehicle: acetone 96 % of control | dose: 40.0 mg/kg/injection, schedule: Q01DX001 (ip), vehicle: acetone 96 % of control

Cc1ccccc1N1CCN(c2ccccc2C)C1=C1N(c2ccccc2C)CCN1c1ccccc1C
inactive: dose: 100.0 mg/kg/injection, schedule: Q04DX002 (ip), vehicle: DMSO 103 % of control | dose: 200.0 mg/kg/injection, schedule: Q04DX002 (ip), vehicle: DMSO 98 % of control

COc1cc(C)c(C(=O)c2ccccc2NS(=O)(=O)c2ccc(C)cc2)cc1OC
inactive: dose: 50.0 mg/kg/injection, schedule: Q01DX001 (ip), vehicle: other 98 % of control | [9] 95 % of control | [10] 92 % of control | dose: 400.0 mg/kg/injection, schedule: Q01DX001 (ip), vehicle: other 104 % of control

Cc1ccc(C(=O)OCc2ccccc2CN2CCCCC2C)cc1 (configuration not stated)
inactive: [11] 94 % of control | [12] 108 % of control | [13] 90 % of control

NC(=O)NCc1ccc(CNC(N)=O)cc1
inactive: [14] 98 % of control | [15] 98 % of control | [16] 115 % of control

CC(=O)OCC1OC(n2cnc3c(=O)[nH]c(N)nc32)C(OC(C)=O)C1OC(C)=O (configuration not stated)
inactive: dose: 100.0 mg/kg/injection, schedule: Q01DX005 (ip), vehicle: saline 91 % of control | dose: 200.0 mg/kg/injection, schedule: Q01DX005 (ip), vehicle: saline 102 % of control and 109 % of control

CC(=O)OCCc1ccc([N+](=O)[O-])cc1
inactive: [14] 97 % of control | [15] 93 % of control | [16] 97 % of control

Cc1cc([N+](=O)[O-])ccc1S(=O)(=O)F
inactive: dose: 100.0 mg/kg/injection, schedule: Q04DX003 (ip), vehicle: saline with Tween-80 100 % of control

Cc1ccc2c(c1)C=C/C(=C/c1cc[n+](C)c3ccccc13)N2C
inactive: [9] 97 % of control | [10] 92 % of control

CN1CCC(CNC(=O)c2ccccc2)c2ccccc21 (configuration not stated)
inactive: [17] 100 % of control | [18] 96 % of control | [19] 92 % of control | [20] 102 % of control

Cn1c2c(c(=O)n(C)c1=O)C(=Nc1ccccc1N)C(=O)N2
inactive: dose: 100.0 mg/kg/injection, schedule: Q01DX001 (ip), vehicle: saline 101 % of control | dose: 200.0 mg/kg/injection, schedule: Q01DX001 (ip), vehicle: saline 101 % of control | dose: 400.0 mg/kg/injection, schedule: Q01DX001 (ip), vehicle: saline 90 % of control

CCCCNC(=O)OCC
inactive: [17] 102 % of control | dose: 50.0 mg/kg/injection, schedule: Q01DX009 (ip), vehicle: saline with Tween-80 90 % of control | dose: 88.0 mg/kg/injection, schedule: Q01DX001 (ip), vehicle: carboxymethylcellulose (CMC) 104 % of control and 92 % of control | [18] 98 % of control | dose: 100.0 mg/kg/injection, schedule: Q01DX009 (ip), vehicle: saline with Tween-80 95 % of control | dose: 133.0 mg/kg/injection, schedule: Q01DX001 (ip), vehicle: carboxymethylcellulose (CMC) 93 % of control and 92 % of control | [19] 93 % of control and 92 % of control | dose: 200.0 mg/kg/injection, schedule: Q01DX009 (ip), vehicle: saline with Tween-80 93 % of control | dose: 300.0 mg/kg/injection, schedule: Q01DX001 (ip), vehicle: carboxymethylcellulose (CMC) 96 % of control and 106 % of control | [20] 102 % of control

O=[N+]([O-])c1ccc(OCCBr)c(Cl)c1
inactive: [21] 92 % of control | [22] 97 % of control | [23] 96 % of control

CCc1c(CBr)c(=O)[nH]c2ccccc12
inactive: [9] 96 % of control

Cc1nnc(N)nc1C
inactive: [11] 95 % of control | [12] 103 % of control | [13] 95 % of control

Cc1ccc(S(=O)(=O)N/N=C2/CC3CCC(C)(C2)C3)cc1 (configuration not stated)
inactive: [5] 100 % of control | dose: 25.0 mg/kg/injection, schedule: Q04DX003 (ip), vehicle: saline with Tween-80 98 % of control | dose: 50.0 mg/kg/injection, schedule: Q04DX003 (ip), vehicle: saline with Tween-80 93 % of control

COC(=O)C1=C(C(=O)OC)C2CCC1O2
inactive: [3] 112 % of control | [14] 105 % of control | [4] 106 % of control | [15] 101 % of control | dose: 400.0 mg/kg/injection, schedule: Q01DX009 (ip), vehicle: saline 95 % of control | [16] 94 % of control

CC(=O)OC(C(N)=O)C(OC(C)=O)C(=O)O (configuration not stated)
inactive: dose: 100.0 mg/kg/injection, schedule: Q04DX003 (ip), vehicle: water 96 % of control | dose: 200.0 mg/kg/injection, schedule: Q04DX003 (ip), vehicle: water 100 % of control | dose: 400.0 mg/kg/injection, schedule: Q04DX003 (ip), vehicle: water 97 % of control

COC1=CC2C3=C(C(NC=O)CCc4cc(OC)c(OC)c(OC)c43)C2C1=O (configuration not stated)
inactive: [21] 95 % of control | [22] 100 % of control | [23] 102 % of control

O=C(O)CCCN1CCCCC1
inactive: dose: 100.0 mg/kg/injection, schedule: Q04DX002 (ip), vehicle: saline 103 % of control | dose: 200.0 mg/kg/injection, schedule: Q04DX002 (ip), vehicle: saline 100 % of control | dose: 400.0 mg/kg/injection, schedule: Q04DX002 (ip), vehicle: saline 100 % of control
